Assay results as given in patent publication US20100015141A1, “4-PHENOXY-6-ARYL-1H-PYRAZOLO[3,4-D]PYRIMIDINE AND N-ARYL-6-ARYL-1H-PYRAZOLO[3,4-D]PYRIMIDIN-4-AMINE COMPOUNDS, THEIR USE AS MTOR KINASE AND PI3 KINASE INHIBITORS, AND THEIR SYNTHESES” (Wyeth, priority 2008, published 2010).
Read-outs that look alike come from different tables or passages of the source.

Assays:
[1] = molecular target: PI3K-δ (Homo sapiens, UniProt O00329); assay: PI3K fluorescence polarization assay (PI3K-δ); format: biochemical
Chain of PI3K-δ (O00329 whole entry, species assumed): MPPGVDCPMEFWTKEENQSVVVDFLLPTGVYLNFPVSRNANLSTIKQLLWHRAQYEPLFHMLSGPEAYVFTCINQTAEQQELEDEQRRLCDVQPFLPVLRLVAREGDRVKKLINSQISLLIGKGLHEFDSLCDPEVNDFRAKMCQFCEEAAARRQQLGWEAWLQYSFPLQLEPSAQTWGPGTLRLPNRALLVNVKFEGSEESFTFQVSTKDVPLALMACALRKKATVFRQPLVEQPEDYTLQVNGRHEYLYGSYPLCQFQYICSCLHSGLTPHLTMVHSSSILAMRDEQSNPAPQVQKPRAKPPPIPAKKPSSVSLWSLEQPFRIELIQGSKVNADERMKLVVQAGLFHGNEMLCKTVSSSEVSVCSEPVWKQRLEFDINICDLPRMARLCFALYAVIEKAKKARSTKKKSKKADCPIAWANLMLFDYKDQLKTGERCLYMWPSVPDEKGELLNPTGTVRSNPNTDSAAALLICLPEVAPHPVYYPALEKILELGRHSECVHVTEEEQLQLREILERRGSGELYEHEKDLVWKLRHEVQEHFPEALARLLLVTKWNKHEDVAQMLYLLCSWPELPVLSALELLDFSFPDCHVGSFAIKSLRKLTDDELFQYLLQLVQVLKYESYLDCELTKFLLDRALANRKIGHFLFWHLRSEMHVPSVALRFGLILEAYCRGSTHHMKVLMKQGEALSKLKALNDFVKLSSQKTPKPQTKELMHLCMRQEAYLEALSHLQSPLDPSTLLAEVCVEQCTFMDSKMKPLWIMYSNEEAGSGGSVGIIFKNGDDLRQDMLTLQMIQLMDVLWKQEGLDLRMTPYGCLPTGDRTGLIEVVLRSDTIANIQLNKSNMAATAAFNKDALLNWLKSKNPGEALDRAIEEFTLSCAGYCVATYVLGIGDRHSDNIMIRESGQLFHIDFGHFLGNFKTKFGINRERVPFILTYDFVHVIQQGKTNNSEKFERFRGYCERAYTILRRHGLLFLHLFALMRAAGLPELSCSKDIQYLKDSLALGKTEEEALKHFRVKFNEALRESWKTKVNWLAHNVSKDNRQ
Chain of PI3K-δ (P27986 whole entry partner, species assumed): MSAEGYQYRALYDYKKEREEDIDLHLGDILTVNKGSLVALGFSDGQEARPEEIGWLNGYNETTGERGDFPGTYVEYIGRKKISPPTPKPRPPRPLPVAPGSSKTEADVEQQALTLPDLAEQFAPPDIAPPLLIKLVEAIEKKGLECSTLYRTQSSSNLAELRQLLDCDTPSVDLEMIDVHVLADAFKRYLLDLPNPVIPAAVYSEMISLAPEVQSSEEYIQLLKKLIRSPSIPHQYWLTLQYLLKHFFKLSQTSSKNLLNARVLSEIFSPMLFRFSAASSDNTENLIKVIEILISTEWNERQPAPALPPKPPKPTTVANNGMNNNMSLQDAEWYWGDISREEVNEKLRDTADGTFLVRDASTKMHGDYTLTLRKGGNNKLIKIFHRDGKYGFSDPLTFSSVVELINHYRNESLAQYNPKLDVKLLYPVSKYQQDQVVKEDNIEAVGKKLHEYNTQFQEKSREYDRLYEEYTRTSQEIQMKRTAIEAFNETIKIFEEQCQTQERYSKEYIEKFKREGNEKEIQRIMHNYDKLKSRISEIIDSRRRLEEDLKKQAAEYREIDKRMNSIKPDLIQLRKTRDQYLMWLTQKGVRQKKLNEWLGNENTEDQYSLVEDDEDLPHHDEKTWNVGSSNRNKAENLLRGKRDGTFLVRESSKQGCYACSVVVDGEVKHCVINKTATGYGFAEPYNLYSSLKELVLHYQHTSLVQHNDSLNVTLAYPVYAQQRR
Description: (§1) The reaction buffer was 20 mM HEPES pH7.5, 2 mM MgCl2, 0.05% CHAPS, and 0.01% βME (added fresh). The substrate solution was 40 μM PIP2 (diC8, Echelon, Salt Lake City Utah cat #P-4508, 1 mM in water) and 50 μM ATP in the reaction buffer. Nunc 384-well black polypropylene fluorescent plates were used for PI3K assays. The assay is run by putting 9.5 μl of freshly diluted enzyme in the reaction buffer per well, adding 0.5 μl of diluted drug or DMSO, and mixing. Then 10 μl of the substrate solution is added to each well to start the reaction. A final concentration of 20 μM PIP2 and 25 μM ATP in the reaction was used. Reactions were allowed to proceed for 30-60 minutes at room temperature. After 30-60 minutes, 20 μl of a solution of 10 nM TAMRA detector (Red detector probe-Echelon) and 2.5 uM of GST-murineGRP (1.5 mg/ml in 17% glycerol) was added per well to stop the reaction. The resulting solution was mixed well and allowed to stand for 90-110 minutes before reading plate. Assay Plates were read on Perkin-Elmer Envision plate readers with appropriate filters for Tamra [BODIPY-TMRI(1,3,4,5)P4]. Data obtained were used to calculate enzymatic activity and enzyme inhibition by inhibitor compounds. It is important to keep Red probe solutions dark. This procedure is adapted from Echelon Biosciences Inc procedure for their PI3-Kinase fluorescence polarization activity Assay kit Product number K-1100.

[2] = molecular target: PI3K-γ (Homo sapiens, UniProt P48736); assay: PI3K-gamma fluorescence polarization assay; format: biochemical; conditions: 20 μM PIP2, 25 μM ATP
Chain of PI3K-γ (P48736 whole entry, species assumed): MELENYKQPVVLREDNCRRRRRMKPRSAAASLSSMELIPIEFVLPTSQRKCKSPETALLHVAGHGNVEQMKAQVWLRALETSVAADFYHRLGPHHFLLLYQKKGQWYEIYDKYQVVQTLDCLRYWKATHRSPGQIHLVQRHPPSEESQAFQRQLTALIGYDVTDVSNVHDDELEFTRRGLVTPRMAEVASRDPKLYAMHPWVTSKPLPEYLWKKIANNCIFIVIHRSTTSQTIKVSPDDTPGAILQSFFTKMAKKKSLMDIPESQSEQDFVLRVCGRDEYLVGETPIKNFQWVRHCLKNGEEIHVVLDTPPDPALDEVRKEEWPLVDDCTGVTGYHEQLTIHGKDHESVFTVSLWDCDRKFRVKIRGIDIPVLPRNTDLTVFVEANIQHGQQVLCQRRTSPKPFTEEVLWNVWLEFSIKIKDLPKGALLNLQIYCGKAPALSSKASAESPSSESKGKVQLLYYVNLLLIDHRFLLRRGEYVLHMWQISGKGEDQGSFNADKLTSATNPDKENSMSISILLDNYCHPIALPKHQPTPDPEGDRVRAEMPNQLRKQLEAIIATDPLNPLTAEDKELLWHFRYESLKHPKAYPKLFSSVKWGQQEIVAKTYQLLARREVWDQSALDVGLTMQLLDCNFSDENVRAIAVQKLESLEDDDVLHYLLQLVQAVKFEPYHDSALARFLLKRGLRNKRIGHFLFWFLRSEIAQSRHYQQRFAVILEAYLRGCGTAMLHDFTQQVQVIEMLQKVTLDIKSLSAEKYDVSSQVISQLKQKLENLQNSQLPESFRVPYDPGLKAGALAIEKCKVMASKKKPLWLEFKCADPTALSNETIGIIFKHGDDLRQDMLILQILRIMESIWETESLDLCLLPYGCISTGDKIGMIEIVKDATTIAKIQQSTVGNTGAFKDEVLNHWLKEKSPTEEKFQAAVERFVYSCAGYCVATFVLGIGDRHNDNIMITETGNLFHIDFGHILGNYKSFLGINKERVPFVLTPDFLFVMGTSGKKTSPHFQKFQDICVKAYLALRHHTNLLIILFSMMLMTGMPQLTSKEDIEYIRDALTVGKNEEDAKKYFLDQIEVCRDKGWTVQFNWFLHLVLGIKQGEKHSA
How it was run: (§2)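 Buffer: 20 mM HEPES pH7.5, 2 mM MgCl2, 0.05% CHAPS, 0.01% βME. Enzyme with compound was reacted with final 20 μM diC8 PIP2 and 25 μM ATP for 30-60 minutes at room temperature. The stop/detection mix (10 nM TAMRA probe, 2.5 uM GST-murine GRP as added) was read by fluorescence polarization after 90-110 minutes.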

[3] = molecular target: PI3K-α (Homo sapiens, UniProt P42336); assay: PI3K-alpha fluorescence polarization assay; format: biochemical; conditions: 20 μM PIP2, 25 μM ATP
Chain of PI3K-α (P42336 whole entry, species assumed): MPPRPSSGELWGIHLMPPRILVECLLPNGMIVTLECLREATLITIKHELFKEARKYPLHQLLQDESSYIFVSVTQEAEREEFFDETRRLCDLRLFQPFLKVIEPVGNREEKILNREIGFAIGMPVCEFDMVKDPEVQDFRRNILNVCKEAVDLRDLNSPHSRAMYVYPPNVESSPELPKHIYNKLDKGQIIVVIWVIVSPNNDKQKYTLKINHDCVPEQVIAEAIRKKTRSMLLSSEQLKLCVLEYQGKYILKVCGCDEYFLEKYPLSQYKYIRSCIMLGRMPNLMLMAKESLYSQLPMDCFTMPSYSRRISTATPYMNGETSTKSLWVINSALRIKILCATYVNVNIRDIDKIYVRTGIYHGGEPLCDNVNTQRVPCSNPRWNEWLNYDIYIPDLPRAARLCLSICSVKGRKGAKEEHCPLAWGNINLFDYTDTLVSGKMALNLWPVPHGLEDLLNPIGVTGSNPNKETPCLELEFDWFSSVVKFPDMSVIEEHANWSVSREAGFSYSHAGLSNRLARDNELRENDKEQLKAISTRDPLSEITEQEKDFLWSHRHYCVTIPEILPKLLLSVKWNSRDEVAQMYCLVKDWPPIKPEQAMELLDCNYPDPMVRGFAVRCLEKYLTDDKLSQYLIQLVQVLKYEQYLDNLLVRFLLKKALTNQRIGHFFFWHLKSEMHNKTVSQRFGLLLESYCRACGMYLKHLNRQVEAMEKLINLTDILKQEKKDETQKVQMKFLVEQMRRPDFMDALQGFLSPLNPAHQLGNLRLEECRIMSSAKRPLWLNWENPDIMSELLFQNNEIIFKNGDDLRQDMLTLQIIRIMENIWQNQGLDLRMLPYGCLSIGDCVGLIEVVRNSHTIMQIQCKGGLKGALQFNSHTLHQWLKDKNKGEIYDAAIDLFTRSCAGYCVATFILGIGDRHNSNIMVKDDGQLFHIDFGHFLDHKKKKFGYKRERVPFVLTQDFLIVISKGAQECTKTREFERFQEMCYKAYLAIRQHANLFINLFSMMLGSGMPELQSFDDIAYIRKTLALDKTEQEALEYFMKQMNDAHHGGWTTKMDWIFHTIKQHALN
Chain of PI3K-α (P27986 whole entry partner, species assumed): as the sequence (P27986 whole entry partner, species assumed) above
How it was run: as §2

[4] = molecular target: PI3K-β (Homo sapiens, UniProt P42338); assay: PI3K fluorescence polarization assay (PI3K-β); format: biochemical
Chain of PI3K-β (P42338 whole entry, species assumed): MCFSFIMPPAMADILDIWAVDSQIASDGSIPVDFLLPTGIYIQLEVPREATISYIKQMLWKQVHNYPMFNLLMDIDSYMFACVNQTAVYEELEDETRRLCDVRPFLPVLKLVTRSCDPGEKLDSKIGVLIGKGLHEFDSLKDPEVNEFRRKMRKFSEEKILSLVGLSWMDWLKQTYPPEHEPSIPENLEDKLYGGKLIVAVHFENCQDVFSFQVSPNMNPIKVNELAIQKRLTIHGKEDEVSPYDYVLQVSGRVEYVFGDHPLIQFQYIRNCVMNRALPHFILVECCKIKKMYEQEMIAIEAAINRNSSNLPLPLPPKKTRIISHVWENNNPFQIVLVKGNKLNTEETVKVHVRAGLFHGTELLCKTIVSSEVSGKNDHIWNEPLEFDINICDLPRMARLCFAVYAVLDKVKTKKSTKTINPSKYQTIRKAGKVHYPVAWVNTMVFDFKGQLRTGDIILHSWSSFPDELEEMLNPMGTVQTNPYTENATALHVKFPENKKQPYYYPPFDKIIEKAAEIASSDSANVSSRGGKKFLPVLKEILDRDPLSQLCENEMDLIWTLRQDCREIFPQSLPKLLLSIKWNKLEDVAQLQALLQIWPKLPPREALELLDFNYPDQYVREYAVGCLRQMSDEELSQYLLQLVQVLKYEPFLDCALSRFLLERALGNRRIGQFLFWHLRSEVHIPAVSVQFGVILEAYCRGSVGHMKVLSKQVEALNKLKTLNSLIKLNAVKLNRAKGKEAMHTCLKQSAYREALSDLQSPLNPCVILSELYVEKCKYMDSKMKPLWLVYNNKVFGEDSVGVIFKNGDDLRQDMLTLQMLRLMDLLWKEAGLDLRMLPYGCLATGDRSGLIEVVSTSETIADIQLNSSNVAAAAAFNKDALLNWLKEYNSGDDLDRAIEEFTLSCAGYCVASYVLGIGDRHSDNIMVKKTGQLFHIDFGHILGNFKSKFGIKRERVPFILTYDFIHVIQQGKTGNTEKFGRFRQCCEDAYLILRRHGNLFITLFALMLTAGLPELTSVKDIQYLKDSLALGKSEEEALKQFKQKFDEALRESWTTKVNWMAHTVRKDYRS
Chain of PI3K-β (P27986 whole entry partner, species assumed): as the sequence (P27986 whole entry partner, species assumed) above
Description: as §1

[5] = molecular target: T1, mTOR (Homo sapiens, UniProt P42345); assay: mTOR enzyme assay (DELFIA, His6-S6K phosphorylation); format: biochemical; set-up: FLAG; conditions: 100 μM ATP, 1.25 μM His6-S6K
[6] = test system: human tumor xenografts; conditions: cited from earlier work
[7] = test system: acute lymphoblastic leukemia; conditions: in vivo; cited from earlier work
[8] = molecular target: T1, mTOR; conditions: read-out: mTOR IC50; mTOR complexes (PI103) / mTOR enzymes (ZSTK474); cited from earlier work

Compound | IC50 [1] [nM] | IC50 [2] [nM] | IC50 [3] [nM] | IC50 [4] [nM] | IC50 [5] [nM] | further results
COc1ccc(Oc2nc(-c3ccc(OC)c(OC)c3)nc3c2cnn3C)cc1OC [Example 46, 4-(3,4-dimethoxyphenoxy)-6-(3,4-dimethoxyphenyl)-1-methyl-1H-pyrazolo[3,4-d]pyrimidine] | 94 | 203 | 230 | 428 | > 20000 | 
COc1cccc(-c2nc(Oc3ccc(NC(C)=O)cc3)c3cnn(C)c3n2)c1 [Example 49, N-(4-{[6-(3-methoxyphenyl)-1-methyl-1H-pyrazolo[3,4-d]pyrimidin-4-yl]oxy}phenyl)acetamide] | 134 | 514 | 258 | 1040 | > 20000 | 
CC(=O)Nc1ccc(Oc2nc(-c3cccc(O)c3)nc3c2cnn3C)cc1 [Example 50, N-(4-{[6-(3-hydroxyphenyl)-1-methyl-1H-pyrazolo[3,4-d]pyrimidin-4-yl]oxy}phenyl)acetamide] | 65 | 114 | 113 | 213 | 2100 | 
Cc1noc(C)c1-c1nc(Nc2ccc(C(N)=O)cc2)c2cnn(C)c2n1 [Example 63, 4-{[6-(3,5-dimethylisoxazol-4-yl)-1-methyl-1H-pyrazolo[3,4-d]pyrimidin-4-yl]amino}benzamide] | 439 | 416 | 75 | 2150 | 2800 | 
Cn1c(=O)n(-c2ccc(C(C)(C)C#N)cc2)c2c3cc(-c4cnc5ccccc5c4)ccc3ncc21 [NVP-BEZ-235, 2-methyl-2-(4-(3-methyl-2-oxo-8-(quinolin-3-yl)-2,3-dihydro-1H-imidazo[4,5-c]quinolin-1-yl)phenyl)propanenitrile] |  |  |  |  |  | activity in human tumor xenograft models ([6]; prostrate (PC-3) and glioblastoma (U-87)): demonstrated activity
Oc1cccc(-c2nc(N3CCOCC3)c3oc4ncccc4c3n2)c1 [PI103, 3-(4-(4-morpholinyl)pyrido[3′,2′:4,5]furo[3,2-d]pyrimidin-2-yl)phenol] |  |  |  |  |  | activity in human tumor xenograft models ([6]; I.P. dosing in mice, U87MG, PC3, MDA-MB-468, MDA-MB-435, HCT 116, SKOV3, IGROV-1): demonstrated activity
CO[C@H]1C[C@@H]2CC[C@@H](C)[C@@](O)(O2)C(=O)C(=O)N2CCCC[C@H]2C(=O)O[C@H]([C@H](C)C[C@@H]2CC[C@@H](OC(=O)C(C)(CO)CO)[C@H](OC)C2)CC(=O)[C@H](C)/C=C(\C)[C@@H](O)[C@@H](OC)C(=O)[C@H](C)C[C@H](C)/C=C/C=C/C=C/1C [Torisel] |  |  |  |  |  | activity in NOS/SCID xenograft mouse model of acute lymphoblastic leukemia [7]: active
FC(F)c1nc2ccccc2n1-c1nc(N2CCOCC2)nc(N2CCOCC2)n1 [ZSTK474, 2-(2-difluoromethylbenzoimidazol-1-yl)-4,6-dimorpholino-1,3,5-triazine] |  |  |  |  |  | tumor growth in mouse human xenograft cancer models ([6]; chronic oral administration, 400 mg/kg, A549, PC-3, WiDr): completely inhibited growth; IC50 [8]: > 10000 nM

The next lines start with results.

IC50 [1] [nM] | IC50 [2] [nM] | IC50 [3] [nM] | IC50 [4] [nM] | IC50 [5] [nM] | Compound | further results
170 | 331 | 40 | 1620 | 300 | Cn1ncc2c(Nc3ccc(C(N)=O)cc3)nc(-c3cccc(Cl)c3)nc21 [Example 64, 4-{[6-(3-chlorophenyl)-1-methyl-1H-pyrazolo[3,4-d]pyrimidin-4-yl]amino}benzamide] | 
 | 6 | < 0.3 |  | 9 | CN(C)CCN(C)C(=O)c1ccc(NC(=O)Nc2ccc(Nc3nc(Nc4ccc(C(N)=O)cc4)c4cnn(C)c4n3)cc2)cc1 [Example 92, 4-({[4-({4-[(4-Carbamoylphenyl)amino]-1-methyl-1H-pyrazolo[3,4-d]pyrimidin-6-yl}amino)phenyl]carbamoyl}amino)-N-[2-(dimethylamino)ethyl]-N-methylbenzamide] | 
 | 75 | 2.1 |  | 12 | CN(C)C(=O)c1ccc(Nc2nc(Nc3ccc(NC(=O)Nc4cccnc4)cc3)nc3c2cnn3C)cc1 [Example 93, N,N-Dimethyl-4-{[1-methyl-6-({4-[(pyridin-3-ylcarbamoyl)amino]phenyl}amino)-1H-pyrazolo[3,4-d]pyrimidin-4-yl]amino}benzamide] | 
 | 11 | 1.6 |  | 20 | Cn1ncc2c(Nc3ccc4c(c3)CNC4=O)nc(Nc3ccc(NC(=O)Nc4cccnc4)cc3)nc21 [Example 94, 1-[4-({1-Methyl-4-[(1-oxo-2,3-dihydro-1H-isoindol-5-yl)amino]-1H-pyrazolo[3,4-d]pyrimidin-6-yl}amino)phenyl]-3-pyridin-3-ylurea] | 
 | 148 | 6 |  | 68 | CN1Cc2cc(Nc3nc(Nc4ccc(NC(=O)Nc5cccnc5)cc4)nc4c3cnn4C)ccc2C1=O [Example 95, 1-[4-({1-Methyl-4-[(2-methyl-1-oxo-2,3-dihydro-1H-isoindol-5-yl)amino]-1H-pyrazolo[3,4-d]pyrimidin-6-yl}amino)phenyl]-3-pyridin-3-ylurea] | 
